Test results as given in PubChem BioAssay (NCI).
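The compound was tested at five concentrations on cells cultured in 96-well plates, with a 48-hour exposure period. TGI denotes the concentration required for complete inhibition of growth.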

How the values were obtained:
Test in all cases: NCI tumour cell line growth inhibition, 48 h
DLD-1 colon = tested on: DLD-1 colon
LXFL 529 NSCLC = tested on: LXFL 529 NSCLC
IGROV1 ovarian = tested on: IGROV1 ovarian
M14 melanoma = tested on: M14 melanoma
HCT-15 colon = tested on: HCT-15 colon
K-562 leukemia = tested on: K-562 leukemia
SK-MEL-28 melanoma = tested on: SK-MEL-28 melanoma
SN12C renal = tested on: SN12C renal
SK-OV-3 ovarian = tested on: SK-OV-3 ovarian
SF-268 CNS = tested on: SF-268 CNS
UACC-257 melanoma = tested on: UACC-257 melanoma
CAKI-1 renal = tested on: CAKI-1 renal
KM12 colon = tested on: KM12 colon
SF-295 CNS = tested on: SF-295 CNS
NCI-H460 lung = tested on: NCI-H460 lung
SW-620 colon = tested on: SW-620 colon
M19-MEL melanoma = tested on: M19-MEL melanoma
HOP-62 NSCLC = tested on: HOP-62 NSCLC
786-0 renal = tested on: 786-0 renal
A549 NSCLC = tested on: A549 NSCLC
NCI-H23 lung = tested on: NCI-H23 lung
HOP-18 NSCLC = tested on: HOP-18 NSCLC
U251 CNS = tested on: U251 CNS
OVCAR-5 ovarian = tested on: OVCAR-5 ovarian
SK-MEL-5 melanoma = tested on: SK-MEL-5 melanoma
NCI-H522 lung = tested on: NCI-H522 lung
HT29 colon = tested on: HT29 colon
COLO 205 colon = tested on: COLO 205 colon
OVCAR-8 ovarian = tested on: OVCAR-8 ovarian
UACC-62 melanoma = tested on: UACC-62 melanoma
DMS 273 small cell lung = tested on: DMS 273 small cell lung
HOP-92 NSCLC = tested on: HOP-92 NSCLC
OVCAR-4 ovarian = tested on: OVCAR-4 ovarian
HL-60(TB) leukemia = tested on: HL-60(TB) leukemia
RXF-631 renal = tested on: RXF-631 renal
MALME-3M melanoma = tested on: MALME-3M melanoma
SK-MEL-2 melanoma = tested on: SK-MEL-2 melanoma
UO-31 renal = tested on: UO-31 renal
A498 renal = tested on: A498 renal
HCT-116 colon = tested on: HCT-116 colon
ACHN renal = tested on: ACHN renal
EKVX NSCLC = tested on: EKVX NSCLC
NCI-H226 lung = tested on: NCI-H226 lung
XF 498 CNS = tested on: XF 498 CNS
MOLT-4 leukemia = tested on: MOLT-4 leukemia
RPMI-8226 leukemia = tested on: RPMI-8226 leukemia
TK-10 renal = tested on: TK-10 renal
HCC-2998 colon = tested on: HCC-2998 colon
SNB-75 CNS = tested on: SNB-75 CNS
SNB-78 CNS = tested on: SNB-78 CNS
KM20L2 colon = tested on: KM20L2 colon
LOX IMVI melanoma = tested on: LOX IMVI melanoma
OVCAR-3 ovarian = tested on: OVCAR-3 ovarian
DMS 114 small cell lung = tested on: DMS 114 small cell lung
CCRF-CEM leukemia = tested on: CCRF-CEM leukemia
SNB-19 CNS = tested on: SNB-19 CNS
SF-539 CNS = tested on: SF-539 CNS
RXF 393 renal = tested on: RXF 393 renal
SR leukemia = tested on: SR leukemia

Measured: TGI

O=C(O)C1CCC(=O)N1C(=O)C(Cl)c1ccccc1 (centres undefined)
not listed: SF-539 CNS | RXF 393 renal | SR leukemia
> 100 µM: all other assays above

N#CC1C(=O)C(=O)N(c2ccccc2)C1=O (centres undefined)
not listed: DLD-1 colon | A549 NSCLC | HL-60(TB) leukemia | MOLT-4 leukemia | CCRF-CEM leukemia | SR leukemia
> 100 µM: all other assays above

COC1(OC)CC2CCCCC2=C(C)N1S(=O)(=O)c1ccccc1 (centres undefined)
not listed: A498 renal | MOLT-4 leukemia | HCC-2998 colon | DMS 114 small cell lung
> 100 µM: all other assays above
